From US20020052365A1, “Selective anxiolytic therapeutic agents” (priority 2000, published 2002)
Entries after “also recorded” stand apart in the source; their conditions may differ.

Columns and labels:
[1] = biological target: diazepam-insensitive [3H]Ro15-4513 binding sites (α4 and α6 GABAA receptors); experiment: [3H]Ro15-4513 binding to diazepam-insensitive sites, wild type mouse brain; conditions: n=3
[2] = tested on: recombinant α2(H101R)β3γ2 receptors; conditions: recombinant α2(H101R)β3γ2 in HEK-293 cells; cited from earlier work
[3] = tested on: GABAA receptors in hippocampal pyramidal cells from wild type mice; experiment: Patch-clamp GABA responses in cultured hippocampal pyramidal cells, wild type; format: cell-based, mouse
Experimental: (§1) FIGS. 2A-C. […] The holding potential in the patch-clamp analysis was −60 mV the chloride concentration symmetrical. GABA was applied for 5 sec. Hippocampal neurons from E16.5 embryos were cultured for 10-14 days.

[4] = biological target: diazepam-insensitive [3H]Ro15-4513 binding sites in α2(H101R) mice; experiment: [3H]Ro15-4513 binding to diazepam-insensitive sites, α2(H101R) mouse brain; conditions: n=3
[5] = tested on: GABAA receptors in hippocampal pyramidal cells from α2(H101R) mice; experiment: Patch-clamp GABA responses in cultured hippocampal pyramidal cells, α2(H101R); format: cell-based, mouse
Experimental: as §1

[6] = biological target: diazepam-insensitive [3H]Ro15-4513 binding sites in α3(H126R) mice; experiment: [3H]Ro15-4513 binding to diazepam-insensitive sites, α3(H126R) mouse brain; conditions: n=3
[7] = tested on: wild type, α2(H101R) and α3(H126R) mice; experiment: Pentylenetetrazole test; format: in vivo, mouse; conditions: pentylenetetrazole 120 mg/kg ip, diazepam 3, 10, 30 mg/kg p.o.
Experimental: (§2) V, vehicle. […] 31:733. Locomotor activity was automatically recorded for 30 min.
Following pentylenetetrazole treatment (120 mg/kg ip), occurrence and/or latency to tonic seizures was recorded for a maximum of 10 minutes in wild type and mutant mice. […].

[8] = tested on: wild type, α2(H101R) and α3(H126R) mice; experiment: Locomotor activity; format: in vivo, mouse; conditions: diazepam 3, 10, 30 mg/kg p.o., 30 min prior
Experimental: as §2

[9] = tested on: wild type and α1-GABAA receptor (H101R) mice; experiment: Withdrawal after chronic diazepam and flumazenil administration; conditions: chronic diazepam then flumazenil
[10] = tested on: wild type, α2(H101R) and α3(H126R) mice; experiment: Elevated plus-maze; format: in vivo, mouse; conditions: diazepam 2 mg/kg p.o.
Experimental: (§3) FIG. 4A: Light/dark choice test. […] FIGS. 4B-C: Elevated plus-maze. […] FIG. 4D: Light/dark choice test. […] FIGS. 4E-F: Elevated plus-maze. […] Results are given as means ±S.E.M.+, P<0.05;++, P<0.01;+++P<0.001 (Dunnett's or Fisher's pair-wise post-hoc comparisons or Fisher's exact tests). […] The light-dark choice test was carried out as described infra with an illumination of 500 lux. […] The elevated plus-maze was performed as described infra under an indirect dim light illumination (<10 lux).
Mice were placed on an elevated crossbar with two walled and two open arms under indirect dim illumination. […] The time spent on the open arms and the number of open arm entries was recorded for 5 minutes.
(§4) Female wild-type and mutant mice were raised in the test rooms and behaviorally tested during the dark period of the 1 2-hr light/dark cycle.

[11] = biological target: T1, α3 subunits from α3(H126R) mice (Mus musculus, UniProt P22723+P26049, H154R); experiment: Diazepam affinity by [3H]Ro15-4513 binding after immunoprecipitation with α3 subunit-specific antiserum; conditions: immunoprecipitated
T1 construct: from tissue; host or cells: brain of α3(H126R) knock-in mice
Source text: (§5) To distinguish between the pharmacology of α2 and α3 receptor subtypes, two mouse lines were generated in which a point mutation was introduced into homologous positions of the α2 subunit gene [α2(H101R)]

[12] = tested on: wild type, α2(H101R) and α3(H126R) mice; experiment: Light/dark choice test; format: in vivo, mouse; conditions: for time in the lit area: sodium phenobarbital 15 mg/kg s.c., n=6-8
Experimental: as §3
In a chamber containing an interconnected dark and lit (500 lux) box, the behavior of wild-type and mutant mice was tested for 5 min following the first entry into the dark compartment. […] The time spent in the lit box was recorded.
as §4

[13] = biological target: T2, α2 subunits from α2(H101R) mice (Mus musculus, UniProt P22723+P26048, H129R); experiment: Diazepam affinity by [3H]Ro15-4513 binding after immunoprecipitation with α2 subunit-specific antiserum; conditions: immunoprecipitated
T2 construct: from tissue; host or cells: brain of α2(H101R) knock-in mice
Source text: as §5

T2 sequence (P26048 29-451 H129R): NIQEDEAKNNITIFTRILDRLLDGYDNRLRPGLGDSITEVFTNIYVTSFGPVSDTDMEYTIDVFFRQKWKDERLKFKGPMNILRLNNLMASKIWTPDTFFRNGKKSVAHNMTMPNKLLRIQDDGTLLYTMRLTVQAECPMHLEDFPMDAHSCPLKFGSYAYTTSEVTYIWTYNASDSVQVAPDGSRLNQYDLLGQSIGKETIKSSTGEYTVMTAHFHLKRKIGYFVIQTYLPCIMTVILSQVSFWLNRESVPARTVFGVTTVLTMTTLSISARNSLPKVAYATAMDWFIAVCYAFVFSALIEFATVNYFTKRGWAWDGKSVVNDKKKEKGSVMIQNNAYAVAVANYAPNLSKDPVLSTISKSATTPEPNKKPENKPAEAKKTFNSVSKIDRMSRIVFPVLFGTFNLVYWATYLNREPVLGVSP
T2 sequence (P22723 39-474): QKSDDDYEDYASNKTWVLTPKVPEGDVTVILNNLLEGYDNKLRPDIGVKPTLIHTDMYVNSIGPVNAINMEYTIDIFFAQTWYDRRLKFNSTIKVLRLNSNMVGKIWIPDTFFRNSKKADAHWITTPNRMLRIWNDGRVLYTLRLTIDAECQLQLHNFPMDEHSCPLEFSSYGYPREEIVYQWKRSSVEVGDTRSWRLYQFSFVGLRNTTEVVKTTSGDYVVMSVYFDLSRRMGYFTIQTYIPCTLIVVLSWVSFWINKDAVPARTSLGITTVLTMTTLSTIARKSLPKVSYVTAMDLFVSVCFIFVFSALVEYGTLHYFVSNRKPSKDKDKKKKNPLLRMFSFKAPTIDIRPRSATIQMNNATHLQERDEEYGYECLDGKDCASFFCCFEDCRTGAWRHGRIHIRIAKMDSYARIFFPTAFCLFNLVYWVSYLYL
T2 sequence (P63080 26-473 partner): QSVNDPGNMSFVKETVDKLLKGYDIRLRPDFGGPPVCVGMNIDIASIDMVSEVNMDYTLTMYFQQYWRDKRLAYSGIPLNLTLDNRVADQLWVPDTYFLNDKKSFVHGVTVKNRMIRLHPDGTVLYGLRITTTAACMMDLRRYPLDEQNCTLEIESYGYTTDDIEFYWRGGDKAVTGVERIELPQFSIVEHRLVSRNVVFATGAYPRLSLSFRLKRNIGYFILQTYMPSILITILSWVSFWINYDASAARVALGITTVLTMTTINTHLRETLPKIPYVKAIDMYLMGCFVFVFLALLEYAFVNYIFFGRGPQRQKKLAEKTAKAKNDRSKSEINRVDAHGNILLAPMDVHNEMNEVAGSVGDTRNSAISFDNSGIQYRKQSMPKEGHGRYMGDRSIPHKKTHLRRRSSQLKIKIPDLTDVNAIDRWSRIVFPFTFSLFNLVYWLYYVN
T1 sequence (P26049 29-492 H154R): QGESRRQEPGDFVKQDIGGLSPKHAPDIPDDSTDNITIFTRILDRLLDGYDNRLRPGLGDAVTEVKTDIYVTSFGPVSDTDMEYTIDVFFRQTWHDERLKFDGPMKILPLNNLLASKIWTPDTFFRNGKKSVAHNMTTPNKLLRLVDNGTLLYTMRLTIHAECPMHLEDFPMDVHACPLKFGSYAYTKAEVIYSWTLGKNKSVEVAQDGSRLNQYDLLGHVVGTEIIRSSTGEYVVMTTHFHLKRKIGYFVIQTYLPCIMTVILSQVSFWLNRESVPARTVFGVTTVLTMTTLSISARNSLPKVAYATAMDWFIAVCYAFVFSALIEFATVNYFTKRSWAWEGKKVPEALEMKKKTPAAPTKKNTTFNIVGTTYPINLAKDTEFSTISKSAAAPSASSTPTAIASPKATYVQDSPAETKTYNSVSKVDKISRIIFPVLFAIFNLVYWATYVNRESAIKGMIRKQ
T1 sequence (P22723 39-474): as the sequence (P22723 39-474) above
T1 sequence (P63080 26-473 partner): as the sequence (P63080 26-473 partner) above

## CCOC(=O)c1ncn2c1CN(C)C(=O)c1cc(N=[N+]=[N-])ccc1-2 [Ro15-4513]
[1]; α2 wild type controls
  Kd: 4.3 ± 0.8 nM
[1]; α3 wild type controls
  Kd: 4.9 ± 2.1 nM
[2]
  efficacy of Ro15-4513: from inverse agonism to agonism
[3]; Ro15-4513 1μM, n=13
  modulation of GABA response by Ro15-4513 (inverse agonistic action): −39±5.2%
[4]
  Kd: 8 ± 1.3 nM
[5]; Ro15-4513 1μM, n=23
  modulation of GABA response by Ro15-4513 (agonistic response): 11.7±7.5%
[6]
  Kd: 6.5 ± 1.6 nM

## CN1C(=O)CN=C(c2ccccc2)c2cc(Cl)ccc21 [diazepam]
[7]; wild type mice
  percentage of mice developing tonic convulsions (anticonvulsant action): Dose-dependent decrease of the percentage of mice developing tonic convulsions
[7]; α2(H101R) mice
  percentage of mice developing tonic convulsions (anticonvulsant action): not impaired; also recorded: Dose-dependent decrease of the percentage of mice developing tonic convulsions
[7]; α3(H126R) mice
  percentage of mice developing tonic convulsions (anticonvulsant action): not impaired; also recorded: Dose-dependent decrease of the percentage of mice developing tonic convulsions
[8]
  locomotor activity (sedative action): Dose-dependent inhibition of locomotor activity
[9]; wild type mice
  withdrawal symptoms (locomotor activity): exhibited withdrawal symptoms
[9]; α1-GABAA receptor (H101R) mice
  withdrawal symptoms (locomotor activity): greatly reduced
[10]; wild type mice
  entries on the open arms: increased
  percentage of time spent on the open arms: increased
[10]; α2(H101R) mice
  entries on the open arms: failed to increase
  percentage of time spent on the open arms: failed to increase
[10]; α3(H126R) mice
  entries on the open arms: increased
  percentage of time spent on the open arms: increased
[11]
  decrease in the affinity for diazepam: more than 1,000 fold
[3]; diazepam 1μM, GABA 3 μM, n=18
  potentiation of GABA response by diazepam: 48.1±7.9%
[12]; wild type mice, diazepam 0.5, 1, 2 mg/kg p.o.
  time spent in the lit area: dose-dependently increased the time spent in the lit area
[12]; α2(H101R) mice, diazepam up to 2 mg/kg p.o.
  time spent in the lit area: did not increase the time spent in the lit area
[12]; α3(H126R) mice, diazepam 0.5, 1, 2 mg/kg p.o.
  time spent in the lit area: Dose-dependent increase in the time spent in the lit area
[5]; diazepam 1μM, GABA 3 μM, n=29
  potentiation of GABA response by diazepam: 17.6±4.5%
[13]
  decrease in the affinity for diazepam: more than 1,000 fold

## CCC1(c2ccccc2)C(=O)NC(=O)NC1=O [phenobarbital, Sodium phenobarbital]
[12]; wild type mice
  time in the lit area: 111.75 s
[12]; α2(H101R) mice
  time in the lit area: 110.9 s
